Experimental data as given in ChEMBL document CHEMBL4033740, “Novel phenanthrene and isocoumarin from the rhizomes of Dioscorea nipponica Makino subsp. rosthornii (Prain et Burkill) C. T. Ting (Dioscoreaceae)” (Bioorg Med Chem Lett, 2017).

These molecules were tested on NCI-H460 (assay: Cytotoxicity against human NCI-H460 cells incubated for 24 hrs by MTT assay). Details: NCI-H460, 24 h.
Type: functional, cell-based

`CC(=O)O[C@H]1CC[C@@]2(C)C(=CC[C@H]3[C@@H]4C[C@@H]5O[C@]6(CC[C@@H](C)CO6)[C@@H](C)[C@@H]5[C@@]4(C)CC[C@@H]32)C1` and `C[C@@H]1CC[C@@]2(OC1)O[C@H]1C[C@H]3[C@@H]4CC=C5C[C@@H](O)CC[C@]5(C)[C@H]4CC[C@]3(C)[C@H]1[C@@H]2C` [DISOGENIN] cannot be ordered by IC50: greater than 50 µM for the first, greater than 50 µM for the second.

`O=c1oc(-c2ccccc2O)cc2cc3c(c(O)c12)OCO3` and `O=C1O[C@H](c2ccccc2)Cc2cc(O)cc(O)c21` cannot be ordered by IC50: greater than 50 µM for the first, greater than 50 µM for the second.

Going from `COc1cc2ccc3c(-c4c(OC)cc(O)c5c4ccc4cc(OC)c(O)cc45)c(OC)cc(O)c3c2cc1O` to `O=C(/C=C/C=C/c1ccc(O)cc1)CCc1ccc(O)cc1`, the IC50 rises from 23.1 µM to greater than 50 µM. The first is the more potent here.

`O=C(C[C@@H]1C[C@@H](O)C[C@H](c2ccccc2)O1)c1ccccc1` and `CCCCC(CC)COC(=O)c1ccccc1C(=O)OCC(CC)CCCC` (centres undefined) [BIS(2-ETHYLHEXYL) PHTHALATE] cannot be ordered by IC50: greater than 50 µM for the first, greater than 50 µM for the second.

Compared with `C[C@H]1[C@H]2[C@H](C[C@H]3[C@@H]4CC=C5C[C@@H](O)CC[C@]5(C)[C@H]4CC[C@]23C)O[C@]12CC[C@@H](CO)CO2`, `C[C@@H]1CC[C@@]2(OC1)O[C@H]1C[C@H]3[C@@H]4CC=C5C[C@@H](O[C@@H]6O[C@H](CO)[C@@H](O)[C@H](O)[C@H]6O[C@@H]6O[C@@H](C)[C@H](O)[C@@H](O)[C@H]6O)CC[C@]5(C)[C@H]4CC[C@]3(C)[C@H]1[C@@H]2C` [OPHIOPOGONIN C] is lower in IC50: greater than 50 µM for the first, 5.04 µM for the second.

`CC(C)C[C@H]1NC(=O)[C@@H]2CCCN2C1=O` and `CC[C@H](CC[C@@H](C)[C@H]1CC[C@H]2[C@@H]3CC=C4C[C@@H](O[C@@H]5O[C@H](CO)[C@@H](O)[C@H](O)[C@H]5O)CC[C@]4(C)[C@H]3CC[C@]12C)C(C)C` [SITOGLUSIDE] cannot be ordered by IC50: greater than 50 µM for the first, greater than 50 µM for the second.

`C[C@@H]1CC[C@@]2(OC1)O[C@H]1C[C@H]3[C@@H]4CC=C5C[C@@H](O[C@@H]6O[C@H](CO)[C@@H](O[C@@H]7O[C@H](CO)[C@@H](O)[C@H](O)[C@H]7O)[C@H](O)[C@H]6O[C@@H]6O[C@@H](C)[C@H](O)[C@@H](O)[C@H]6O)CC[C@]5(C)[C@H]4CC[C@]3(C)[C@H]1[C@@H]2C` [DELTONIN] and `C[C@@H]1CC[C@@]2(OC1)O[C@H]1C[C@H]3[C@@H]4CC=C5C[C@@H](O[C@@H]6O[C@H](CO)[C@@H](O[C@@H]7O[C@@H](C)[C@H](O)[C@@H](O)[C@H]7O)[C@H](O)[C@H]6O[C@@H]6O[C@@H](C)[C@H](O)[C@@H](O)[C@H]6O)CC[C@]5(C)[C@H]4CC[C@]3(C)[C@H]1[C@@H]2C` [DIOSCIN] are within 1.5-fold of each other in IC50: 5.81 µM for the first, 4.56 µM for the second.
